# Data taken from patent publication US9586993B2, “CD44v6-derived peptides for treating pancreatic cancer” (AMCURE GMBH, priority 2012, dated 2017).
# Tested on: L3.6p1 pancreatic carcinoma cells
# Assay: Human orthotopic model, L3.6p1 cells in the pancreas of nude mice
# Format: in vivo, mouse
# Details: for outgrowth / size of the primary tumor: 20 μg per injection i.p. three times per week for three weeks
# Protocol: In the case of the human orthotopic model, L3.6p1 pancreatic carcinoma cells (passage 24-26) were suspended in Hank's balanced salt solution (Invitrogen, Karlsruhe, Germany) after trypsinization. The cells were injected orthotopically in the pancreas of male nude mice as described (Bruns C J et al. (1999) Neoplasia 1(1):50-62). Two groups of 15 mice each were injected i.p. 7 days later with either the human v6 peptide respectively rat control peptide (20 μg). For all experiments described and depicted herein either the rat 14mer control peptide or the human 14mer peptide were used. All experiments were then repeated with the rat 5mer control peptide or the human 5mer peptide (N-R-W-H-E, SEQ ID NO: 2). […] The injection was repeated three times per week for 21 days. Two days after the last treatment the animals were killed.
# 7 μm thick paraffin sections were deparaffinized and rehydrated. For P-Met staining antigen unmasking was achieved by boiling the slides in 1 mM EDTA pH 8.0 followed by incubation for 15 minutes at a sub-boiling temperature, for CD31 staining the sections were treated with Proteinase K (8 μg/ml) for 10 min at 37° C. For immunofluorescence staining of P-Met, unspecific binding was blocked with 5% goat serum (DAKO, Glostrup, Denmark) (diluted in 1×PBS/0.3% Triton X-100) for 60 minutes. In the case of immunohistochemistry, endogenous peroxidases were at first blocked with 3% H2O2 in PBS followed by incubation with biotin blocking system (Dako, Glostrup, Denmark) and then unspecific binding was inhibited by incubation with 5% FCS in PBS. The sections were incubated with the P-Met antibody (D26, dilution 1:50 in 1×PBS/1% BSA/0.3% Triton X-100), Met antibody (C-28, dilution 1:50), GFP antibody (sc-101525, dilution 1:50) or antibody (5 μg/ml) over night or VFF18 (5 μg/ml) o/n at 4° C. After washing in PBS the sections were incubated with Alexa Fluor R 546 goat anti-rabbit (in case of immunofluorescence P-Met and Met staining, dilution 1:500) or a biotinylated secondary antibody (for immunohistochemical stainings rabbit anti-rat antibody for VFF18 and CD31, goat anti-rabbit for P-Met, cleaved Caspase-3 and cleaved Caspase-8 and rabbit anti-mouse for GFP, dilution 1:500) for 45 minutes. For DAB (3,3′-diaminobenzidine) staining the sections were treated with a streptavidin-peroxidase conjugate (Dako, Glostrup, Denmark) and developed with DAB substrate system (3,3′-diaminobenzidine; Biozol, Eching, Germany) For immunofluorescence DAPI was used for nuclear staining.
# The three CD44v6 specific compounds (v6 5mer, PEG840-v6 5mer and PEG2000-v6 5mer of human origin) and a control peptide were applied in three concentrations (2 μg, 20 μg, 200 μg per injection) three times per week i.p. for 4 weeks. One week before start of the treatment the L3.6p1 tumor cells were orthotopically implanted into nude mice.
# Animals were implanted orthotopically with L3.6p1 cells. Tumor growth was allowed for one week before the treatment with the linear v6 14mer, the cyclic v6 8mer as well as the control peptide (rat v6 14mer) was started. All peptides were injected three times per week at a concentration of 0.2, 2 and 10 μg per injection for 3 weeks. At the end of the treatment animals were sacrificed.
# A comparison of different CD44v6 peptide derivatives was performed in animals bearing a orthotopic L3.6p1 tumor. 10 groups of 5 animals each received a dose of 20 μg peptide per injection three times per week for 3 weeks with the compounds listed in Table 4. Three weeks after starting the treatment the animals were sacrificed and analyzed for macroscopic metastases and tumor volume.
sequence,measurement,setting,value
"KEQWFGNRWHEGYR [human 14mer, human CD44v6 14mer peptide]",metastasis formation (liver),0.2 μg per injection three times per week for 3 weeks,showed liver metastases but the average number of metastases per animal was reduced
same,metastasis formation (liver),2 μg per injection i.p. three times per week,showed liver metastases but the average number of metastases per animal was reduced
same,metastasis formation (liver),10 μg per injection three times per week for 3 weeks,complete inhibition of metastatic spreading
same,"tumor angiogenesis (vessel number and vessel size, CD31 staining)",20 μg i.p. three times per week,decreased angiogenesis
same,Met activation in the tumor (immunofluorescence for phospho-Met and Met),20 μg i.p. three times per week for three weeks,completely repressed Met activation
same,outgrowth / size of the primary tumor,"start one week after implantation, listed as CD44v6 14mer",significant reduction in tumor growth
same,outgrowth / size of the primary tumor,"start one week after implantation, listed as human v6 peptide",strongly repressed
same,outgrowth / size of the primary tumor,"start one week after implantation, listed as v6 14mer",strongest reduction of tumor size
same,metastasis formation (liver),"20 μg per injection i.p. three times per week, start one week after implantation",complete inhibition of metastasis
same,metastasis formation (liver),"20 μg per injection i.p. three times per week, start one week after implantation, listed as human-specific peptide",completely inhibited metastasis formation within the liver
